Experimental findings from paper PMC7503308, “A Novel Urease Inhibitor of Ruminal Microbiota Screened through Molecular Docking” (International Journal of Molecular Sciences, 2020) are described below.

Entries after “also recorded” stand apart in the source; their conditions may differ.

For one data set, the system named is ruminal microbial urease. The data set can be described thus: Kinetic characterization of urease inhibition (nonlinear Michaelis-Menten fitting). It counts as biochemical, rumen bacteria of Chinese Holstein dairy cows. As for the experimental part:
Rumen fluid samples were collected from five Chinese Holstein dairy cows with permanent rumen fistula 3 h after feeding a total mixed ration in the morning. All the operations were conducted in accordance with the protocol approved by the Animal Care and Use Committee for Livestock of the Institute of Animal Sciences, Chinese Academy of Agricultural Sciences (Permit Number: IAS2019-14, Permit Date: 22-03-2019). All rumen fluid samples were filtered by a six layer sterilized medical gauze and mixed in a sterilized beaker before being evenly distributed into different 50 mL tubes and stored in liquid nitrogen. The deforested samples were centrifuged at 12,000× g for 10 min at 4 °C, then the supernatant was removed from the tube. The remaining sediments were resuspended in a HEPES buffer solution (pH 7.5, 50 mM) and then centrifuged at 12,000× g for 10 min at 4 °C. The supernatant was discarded and the remaining rumen bacteria were collected and stored at −80 °C for later urease extraction. All the sample handing processes were conducted on an ice bath. Before each urease inhibition assay, 2 g of rumen bacteria were taken from the fridge and resuspended in a HEPES buffer followed by lysis through a high-pressure cell press JG-1A (Ningbo Scientz Biotechnology Co., Ltd., Ningbo, China). The hollow cylindrical sample loading element was placed in −80 °C for 10 min before the high-pressure lysis at 22,000 psi. […] The kinetic of the compound was determined by varying the concentration of urea in the presence of different compound 6238-0047 concentrations of 0.25 and 0.5 mM in the assay mixture. […] Maximal initial velocities were determined from the initial linear portion of the absorbance up to 10 min after the addition of the enzyme. Kinetic parameters Km and Vmax were calculated by the nonlinear fitting of different substrate concentrations against the velocities of the reaction at each different concentrations of compound 6238-0047 using the GraphPad Prism software as mentioned before.

Another data set has as its system Caco-2 cells. Nature of the data set: CCK8 colorimetric cytotoxicity assay. It counts as cell-based. Particulars: concentration below 100 μM, 24 h, p > 0.05. As for the experimental part:
A standard CCK8 colorimetric assay was employed for the evaluation of cytotoxic activity of compound 6238-0047 using 96-well flat bottomed microplates. Dulbecco’s Modified Eagle Medium (GIBCO) with 10% FBS (fetal bovine serum, FBS, Gibco) and 1% NEAA was used for the culturing of Caco-2 cells (ATCC, Manassas, VA, USA), and the medium was supplemented with 100 μg/mL of streptomycin and 100 IU/mL of penicillin. The medium was kept in 5% CO2 and incubated at 37 °C. The exponentially grown cells were harvested, counted using a hemocytometer and diluted with the medium. The cell culture was diluted to a density of 1 × 10^5 cells/mL and transferred into a 96-well plate with 135 μL or […]. The medium was incubated for 24 h for cell attachment. Following this, 15 μL of compounds with different final concentrations of 1, 10, 25, 50, and 100 μM in the experimental group and fresh medium as a control group, were added to a plate with five replicates for each. After 24 h of incubation at 37 °C and kept in 5% CO2, 15 μL of CCK8 was added to each well and after 2 h the absorbance was measured at 450 nm using a microplate reader. The formula for calculating the relative cell viability was as follows:Relative cell viability (%) = absorbance of experimental group/absorbance of control group × 100%

For a further data set, the system named is ruminal microbiota. Nature of the data set: Ruminal microbial fermentation in vitro (six generations): urea and NH3-N. Type of data set: cell-based, rumen fluid of Chinese Holstein dairy cows. As to conditions: 100 μM compound, 24 h, p < 0.01. As for the experimental part:
Seven solutions were prepared for the anaerobic media as solution A (3 g/L K2HPO4), solution B (0.6 g/L CaCl2, 3 g/L K2HPO4, 6 g/L NaCl, 0.6 g/L MgSO4·7H2O), solution C (6 g/L K2HPO4), solution D (1.6 g/L CaCl2·2H2O, 6 g/L K2HPO4, 12 g/L NaCl, 2.5 g/L MgSO4·7H2O), trace element solution (300 mg/L H3BO3, 100 mg/L ZnSO4·7H2O, 30 mg/L MnCl2·4H2O, 20 mg/L CoCl2·6H2O, 30 mg/L Na2MoO4·2H2O, 10 mg/L Na2SeO3, 20 mg/L NiCl2, 10 mg/L CuCl2·2H2O, 150 mg/L FeCl2·4H2O), volatile fatty acid (VFA) mixed solution (17 mL acetic acid, 6 mL propionic acid, 4 mL butyric acid, 1 mL n-valeric acid, 1 mL isovaleric acid, and 1 mL isobutyric acid), and hemin solution, prepared by diluting 50 mg of Haemon in NaOH (1 N solution) and made up to 100 mL with distilled water. Each liter of anaerobic media contained 30 mL of autoclaved rumen fluid supernatant, 0.5 g of glucose, 0.5 g of soluble starch, 0.5 g of cellobiose, 0.5 g of maltose, 0.5 g of […], 0.5 g of tripticase, 0.5 g of yeast extract, 8 g of NaHCO3, 0.1 mL of trace elements solution, 15 mL solution A, 15 mL solution B, 0.5 g of cysteine hydrochloride, 10 mL of hemin solution, 3.1 mL of VFA mixed solution, and 1 mg resazurin. The anaerobic urea solution was prepared using an anaerobic glove box, by dissolving 2.5 g of urea in a 50 mL anaerobic diluent. This diluent consisted of 3.8 mL of salt solution C, 3.8 mL of salt solution D, 5 mL of 8% sodium Na2CO3, 1 mL of 0.1% resazurin, 0.5 g of cysteine hydrochloride dissolved in distilled water and made up to 1000 mL and distributed into 50 mL anaerobic bottles. All the anaerobic bottles were sterilized by autoclave. Prior to the inoculation, fresh frozen rumen fluid samples, pretreated as described previously, were removed from the freezer, thawed, homogenized, and used immediately. […] Chromatographic gradients were referenced to the paper.

Regarding `COc1ccc(-c2ccc(CCC(=O)O)n2NC(N)=O)cc1` [6238-0047, 3-[1-[(aminocarbonyl)amino]-5-(4-methoxyphenyl)-1H-pyrrol-2-yl] propanoic acid], the Vmax in the data set with ruminal microbial urease (0.25 mM of compound) turned out to be 12.58 µM/min; in the data set with ruminal microbial urease (0.5 mM of compound) it was 9.67 µM/min. Also, the Inhibition mode result in the data set on ruminal microbial urease (from change of Km, Vmax and Vmax/Km) is reported as “mixed type inhibitor”. Besides, in the data set on Caco-2 cells, the “Relative cell viability of Caco-2 cell culture” value was “no significant adverse effect; also recorded: no significant influence; also recorded: no cytotoxic effect”. Further, the “Amount of urea degradation vs control group” value in the data set on ruminal microbiota (16.65 mM urea) is recorded as “significantly lowered the amount of urea degradation”. Also, in the data set with ruminal microbiota, the “NH3-N concentration / production vs control group” value was “significantly lower than the control group; also recorded: consistently lower than the control group”.
